Legend:
[1] = tested on: SNB-19 and U-373 glioma cells; settings: drug 4-0.156 μM in combination with H-1PV MOI 1 pfu/cell, 72 h; compared to cells infected only with H-1PV
Protocol: The screening was performed with the Agilent BioCel automated workstation housed in an Ermaflux L2 biosafety cabinet (equipped with charcoal filters to trap gases). The glioma cell lines SNB-19 and U-373 were used for the screening. Cells were seeded with the BRAVO pipettor in 384 well cell culture microplate at 15% confluence in medium supplemented with 10% FBS and penicillin/streptomycin. After overnight incubation half of the plates was infected with wild-type H-1 PV at MOI of 1 plaque forming unit (pfu)/cell, the other half kept untreated. All cells were then treated with 5 concentrations of each of the 1,443 compounds (5-point dose curve incorporating a […] dilution step in duplicates, range 4-0.156 μM). […] PrestoBlue® is a cell viability indicator by using the reducing power of living cells to quantitatively measure the proliferation of cells. […] Conversion is proportional to the number of metabolically active cells and therefore can be measured quantitatively. Quantitation of fluorescent signal intensity of the cell culture supernatant was carried out using the HTS-ready Berthold MITHRAS LB 940 fluorescent plate reader at excitation and emission wavelengths of 569/586 nm (reduced resazurin form resorufin). […]

[2] = tested on: SNB-19, U-373 and AsPC-1 cell lines; assay: Optical microscopy analysis (IncuCyte ZOOM) of morphological/cytopathic effects; assay type: cell-based, human; settings: 4 μM LDV and/or H-1PV MOI 1 (SNB-19) or 100 (U-373, AsPC-1); 4 days (96 h) post-treatment
Protocol: Two glioblastoma cell lines (SNB-19 and U-373) and a pancreatic cell line (AsPC-1) displaying different susceptibility to H-1 PV infection were treated (or not) with increasing amounts of H-1PV (MOI, pfu/cell) in the presence or absence of 4 μM LDV.
The cancer cell lines indicated in FIG. 3 were plated at the same density. After 24 h, cells were infected (or not) with H-1 PV used at the MOI (pfu/cell) of 1 (SNB-19), or 100 (U-373 and AsPC-1) in combination (or not) with 4 μM LDV. Light microscopy images were acquired using the IncuCyte ZOOM™ live cell imaging system (Essen BioScience, MI USA) at 96 h after treatment.

AsPC-1 cells = assay: Real-time detection of cell viability and proliferation (xCELLIgence); assay type: cell-based, human; settings: LDV (1 and 4 μM) and/or H-1PV (up to MOI 100 pfu/cell), monitored for 150 hours
Protocol: (§1) Human cancer cells were seeded into a 96-well E-plate (ACEA Biosciences, San Diego, CA, USA) at a density of 4000 cells/well. After 24 h, cells were infected or not with H-1PV and grown in the presence or absence of LDV. Growth of mock treated cells and virus infected cells was monitored in real-time every 30 min, for 6 days using the xCELLIgence System (ACEA). Cell proliferation was expressed as normalized cell index (CI), a parameter directly proportional to the number of attached cells per well and, therefore, strictly correlated with cell proliferation and viability. The growth curves represent the averages of the results of at least three replicates
(§2) The xCELLIgence system allows the monitoring in real time of cell proliferation and viability. This system was used to confirm the anti-cancer effect of H-1PV/LDV co-treatment. Three cancer cell lines were used for these experiments, namely glioma cell lines […], and pancreatic carcinoma cell line AsPC-1. Cells were treated (or not) with H-1PV in the presence or absence of LDV. Cell proliferation was monitored every 30 min for a total of 150 hours.
(§3) Cancer cells were seeded in a 96-well E-plate. […] Cell proliferation was monitored in real-time using the xCELLIgence system. The values in FIG. 4 are expressed as normalized cell index and plotted against time. […]

SNB-19 cells = assay: as above; assay type: cell-based, human; settings: LDV and/or H-1PV, monitored every 30 min for 150 hours
Protocol: as §1, §2, §3

[3] = tested on: SNB-19 (glioma), AsPC-1 (pancreatic carcinoma), and PC3 (prostate cancer) cell lines; assay: LDH assay of treatment-induced cell lysis (Example 4); assay type: cell-based, human; settings: H-1PV and/or increasing concentrations of LDV; 120 h (SNB19) or 96 h (AsPC1, PC3)
Protocol: (§4) In an lactate dehydrogenase assay (LDH assay) LDH released from a cell, e.g. due to cell lysis, oxidizes lactate to generate NADH, which then in turn reacts with a colorimetric substrate to generate a quantifiable colour change, which is directly correlated to the amount of LDH released and can, as such, used as a measure of cell lysis.
(§5) Cancer cell lines were seeded at a density of 3,000 (U-251, BxPC-3, Panc-1, DU-145, A-549, HOP-62 and Caki-1) or 4,000 (SNB-19, AsPC-1, PC3 and U-373) cells/well in 96-well plates in 50 μl of their respective culture medium supplemented with 10% heat inactivated FBS. After 24 h, 50 μl of FBS-free medium with or without H-1PV and/or Ledipasvir (LDV; Selleck Chemicals LLC, Houston, TX, USA) was added. Cells were incubated for 3-5 days and then subjected to […] LDH assay (CytoTox 96 non-radioactive cytotoxicity assay, Promega Madison, WI, USA), according to the manufacturer's instructions. For each condition tested, six replicates were prepared of which three were used for calculating the total lysis in the presence of detergent as previously described (25).
To further confirm the results shown in Examples 1-3, the oncolytic activity of H-1PV/LDV combination, was analysed by LDH assays. […]

U-373 glioma cells = assay: LDH assay of treatment-induced cell lysis (Example 5); assay type: cell-based, human; settings: 4 μM LDV and/or increasing viral MOIs, 96 h
Protocol: as §4, §5
U-373 glioma cells treated (or not) with 4 μM LDV were infected (or not) with increasing viral MOIs (pfu/cell) and treatment-induced cell lysis was assessed by LDH assay.
U373 glioma cells, were grown for 24 h before being treated for 96 h as indicated. […]

[4] = tested on: U-251, BxPC-3, Panc-1, Du-145, A-549, Hop-62 and Caki-1 cancer cell lines; assay: LDH assay of treatment-induced cell lysis (Example 6); assay type: cell-based, human; settings: LDV, H-1PV or both, 96 h, seven cancer cell lines
Protocol: as §4, §5
H-1 PV can target and kill a broad spectrum of cancer cell lines from different tumour entities. […] Treatment-induced cell lysis was analysed by LDH assay. […]

[5] = tested on: different cancer cell lines of different origins; settings: in vitro, in combination with H-1PV; cited from earlier work
[6] = tested on: xenograft rat model of human pancreatic carcinoma; settings: in vivo, in combination with H-1PV; cited from earlier work

Compound	interaction with H-1PV: fold increase in H-1PV cytotoxicity (PrestoBlue) [1]	cytotoxic / cytopathic effects and morphological changes [2]	cell proliferation and viability (normalized cell index) (AsPC-1 cells)	cell proliferation and viability (normalized cell index) (SNB-19 cells)	treatment-induced cell lysis (LDH) [3]	treatment-induced cell lysis (LDH) (U-373 glioma cells)	treatment-induced cell lysis (LDH) [4]	enhancement of H-1PV oncotoxicity [5]	enhancement of H-1PV oncotoxicity [6]
Oc1ccc(O)cc1 [Hydroquinone]	did not interact with H-1 PV	–	–	–	–	–	–	–	–
COC(=O)N[C@H](C(=O)N1CC2(CC2)C[C@H]1c1ncc(-c2ccc3c(c2)C(F)(F)c2cc(-c4ccc5nc([C@@H]6[C@H]7CC[C@H](C7)N6C(=O)[C@@H](NC(=O)OC)C(C)C)[nH]c5c4)ccc2-3)[nH]1)C(C)C [LDV, methyl N-[(2S)-1-[(6S)-6-[5-[9,9-difluoro-7-[2-[(1R,3S,4S)-2-[(2S)-2-(methoxycarbonylamino)-3-methylbutanoyl]-2-azabicyclo[2.2.1]heptan-3-yl]-3H-benzimidazol-5-yl]fluoren-2-yl]-1H-imidazol-2-yl]-5-azaspiro[2.4]heptan-5-yl]-3-methyl-1-oxobutan-2-yl]carbamate]	–	did not induce any evident cytotoxic effects	did not affect cell proliferation	did not affect cell proliferation	did not induce cell lysis	did not induce cell lysis	did not induced cell lysis	–	–
CN(C)CC[C@H](CSc1ccccc1)Nc1ccc(S(=O)(=O)NC(=O)c2ccc(N3CCN(Cc4ccccc4-c4ccc(Cl)cc4)CC3)cc2)cc1[N+](=O)[O-] [ABT-737]	synergized with H-1PV	–	–	–	–	–	–	enhance H-1PV oncotoxicity in a synergistic manner	enhance H-1PV oncotoxicity in a synergistic manner

— patent US20240041833A1, “PHARMACEUTICAL COMBINATION PRODUCT COMPRISING A PROTOPARVOVIRUS AND AN ANTIVIRAL BENZIMIDAZOLE AND USES THEREOF FOR TREATING CANCER” (priority 2020, published 2024)
